Test results: ChEMBL document CHEMBL1201862, “PubChem BioAssay data set” (2004)
The source made the active and inactive calls.

What was measured:
[1] = biological target: T1, ATP-dependent translocase ABCB1 (Homo sapiens, UniProt P08183); test: P-gp JC-1 efflux blockade concentration-response – Jurkat-DNR cells, flow cytometry, set 2, dose response (AID 504569); type: functional; conditions: read-out: EC50_MICROM_;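 also: potency of pump inhibitors that raise cellular JC-1 green fluorescence up to the nicardipine level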
T1 sequence (P08183 whole entry): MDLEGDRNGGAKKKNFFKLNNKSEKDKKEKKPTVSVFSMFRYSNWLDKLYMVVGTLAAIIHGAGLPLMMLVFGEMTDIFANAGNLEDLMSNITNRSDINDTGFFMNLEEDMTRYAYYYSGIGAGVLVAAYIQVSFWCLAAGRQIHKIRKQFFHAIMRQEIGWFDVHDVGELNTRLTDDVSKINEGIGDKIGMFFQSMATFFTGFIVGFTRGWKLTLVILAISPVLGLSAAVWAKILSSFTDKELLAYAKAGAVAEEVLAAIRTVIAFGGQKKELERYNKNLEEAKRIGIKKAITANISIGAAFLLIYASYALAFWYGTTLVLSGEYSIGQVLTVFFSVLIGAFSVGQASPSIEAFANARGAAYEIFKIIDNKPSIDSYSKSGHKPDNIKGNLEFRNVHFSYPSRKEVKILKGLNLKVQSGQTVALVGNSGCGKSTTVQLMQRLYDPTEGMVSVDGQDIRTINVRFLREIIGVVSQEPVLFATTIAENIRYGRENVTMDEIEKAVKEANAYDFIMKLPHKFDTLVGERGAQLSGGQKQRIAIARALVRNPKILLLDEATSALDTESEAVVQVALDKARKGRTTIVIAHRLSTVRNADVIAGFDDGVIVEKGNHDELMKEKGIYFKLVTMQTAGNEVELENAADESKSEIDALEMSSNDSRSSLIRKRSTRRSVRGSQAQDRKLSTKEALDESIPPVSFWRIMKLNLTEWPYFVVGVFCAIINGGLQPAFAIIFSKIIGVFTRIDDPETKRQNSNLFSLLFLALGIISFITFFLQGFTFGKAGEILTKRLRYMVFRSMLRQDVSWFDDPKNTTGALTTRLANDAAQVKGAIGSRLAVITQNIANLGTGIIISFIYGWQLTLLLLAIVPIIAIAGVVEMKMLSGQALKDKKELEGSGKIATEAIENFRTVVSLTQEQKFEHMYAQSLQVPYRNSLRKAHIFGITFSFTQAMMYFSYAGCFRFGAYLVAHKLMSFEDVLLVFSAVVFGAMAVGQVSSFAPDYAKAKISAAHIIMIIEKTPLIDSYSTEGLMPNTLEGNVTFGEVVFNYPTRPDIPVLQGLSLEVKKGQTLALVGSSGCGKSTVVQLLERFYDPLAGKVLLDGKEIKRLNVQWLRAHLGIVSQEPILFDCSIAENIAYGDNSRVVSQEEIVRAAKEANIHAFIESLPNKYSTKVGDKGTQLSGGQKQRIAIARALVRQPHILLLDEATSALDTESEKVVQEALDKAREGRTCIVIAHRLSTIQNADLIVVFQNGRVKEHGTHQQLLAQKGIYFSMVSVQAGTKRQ

[2] = biological target: T1, ATP-dependent translocase ABCB1; test: inhibition of BCRP-mediated JC-1 efflux – Ig-MXP3 cells, flow cytometry, set 2, dose response (AID 504566); type: functional; conditions: read-out: EC50_MICROM_;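 also: flow cytometry median green fluorescence of retained JC-1 dye; potency of efflux pump inhibition measured as rising substrate retention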
[3] = biological target: T2, Apoptotic protease-activating factor 1 (Homo sapiens, UniProt O14727); test: SAR analysis of small molecule Activators of Apaf-1 in a Fluorescent assay.; type: functional; conditions: read-out: EC50_Mean;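 also: caspase-3 cleavage of fluorogenic Rh110 DEVD substrate downstream of apoptosome activation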
T2 sequence (O14727 whole entry): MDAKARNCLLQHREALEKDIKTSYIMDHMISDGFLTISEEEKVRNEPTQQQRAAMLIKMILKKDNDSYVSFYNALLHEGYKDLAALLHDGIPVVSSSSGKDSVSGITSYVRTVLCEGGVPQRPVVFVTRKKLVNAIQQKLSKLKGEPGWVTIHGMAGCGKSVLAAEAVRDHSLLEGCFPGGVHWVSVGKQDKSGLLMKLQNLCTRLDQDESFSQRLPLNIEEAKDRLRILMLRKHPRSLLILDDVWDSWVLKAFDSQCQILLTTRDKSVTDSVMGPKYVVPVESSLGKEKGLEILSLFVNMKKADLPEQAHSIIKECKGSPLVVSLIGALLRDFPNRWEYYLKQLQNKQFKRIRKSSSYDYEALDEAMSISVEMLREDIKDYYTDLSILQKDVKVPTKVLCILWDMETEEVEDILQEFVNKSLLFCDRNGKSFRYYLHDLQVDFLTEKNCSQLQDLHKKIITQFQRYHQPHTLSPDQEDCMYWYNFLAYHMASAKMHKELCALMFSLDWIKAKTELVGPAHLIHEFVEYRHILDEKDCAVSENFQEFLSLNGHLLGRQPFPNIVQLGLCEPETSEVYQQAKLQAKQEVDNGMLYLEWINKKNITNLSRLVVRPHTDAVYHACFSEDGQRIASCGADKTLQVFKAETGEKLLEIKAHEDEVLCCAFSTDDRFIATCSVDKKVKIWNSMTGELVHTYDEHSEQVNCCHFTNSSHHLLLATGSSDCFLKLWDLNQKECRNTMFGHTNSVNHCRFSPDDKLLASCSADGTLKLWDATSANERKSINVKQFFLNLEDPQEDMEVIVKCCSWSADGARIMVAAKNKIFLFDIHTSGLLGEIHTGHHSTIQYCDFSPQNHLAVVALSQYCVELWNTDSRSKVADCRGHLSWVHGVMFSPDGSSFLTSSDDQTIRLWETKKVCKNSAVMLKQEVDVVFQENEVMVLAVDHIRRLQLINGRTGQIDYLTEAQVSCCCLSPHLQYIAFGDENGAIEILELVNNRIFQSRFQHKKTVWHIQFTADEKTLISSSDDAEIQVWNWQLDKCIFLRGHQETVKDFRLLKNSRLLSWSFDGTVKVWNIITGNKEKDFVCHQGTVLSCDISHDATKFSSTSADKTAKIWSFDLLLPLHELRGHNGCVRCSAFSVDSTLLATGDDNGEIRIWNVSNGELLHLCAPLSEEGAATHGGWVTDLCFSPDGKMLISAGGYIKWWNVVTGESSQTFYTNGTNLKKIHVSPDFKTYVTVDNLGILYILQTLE

[4] = biological target: T3, Tyrosine-protein phosphatase non-receptor type 11 (Homo sapiens, UniProt Q06124); test: PTPN11 enzyme inhibitors – biochemical, selectivity assay for STEP inhibitor project, dose response (AID 602367); type: functional; conditions: read-out: IC50_Mean
T3 sequence (Q06124 whole entry): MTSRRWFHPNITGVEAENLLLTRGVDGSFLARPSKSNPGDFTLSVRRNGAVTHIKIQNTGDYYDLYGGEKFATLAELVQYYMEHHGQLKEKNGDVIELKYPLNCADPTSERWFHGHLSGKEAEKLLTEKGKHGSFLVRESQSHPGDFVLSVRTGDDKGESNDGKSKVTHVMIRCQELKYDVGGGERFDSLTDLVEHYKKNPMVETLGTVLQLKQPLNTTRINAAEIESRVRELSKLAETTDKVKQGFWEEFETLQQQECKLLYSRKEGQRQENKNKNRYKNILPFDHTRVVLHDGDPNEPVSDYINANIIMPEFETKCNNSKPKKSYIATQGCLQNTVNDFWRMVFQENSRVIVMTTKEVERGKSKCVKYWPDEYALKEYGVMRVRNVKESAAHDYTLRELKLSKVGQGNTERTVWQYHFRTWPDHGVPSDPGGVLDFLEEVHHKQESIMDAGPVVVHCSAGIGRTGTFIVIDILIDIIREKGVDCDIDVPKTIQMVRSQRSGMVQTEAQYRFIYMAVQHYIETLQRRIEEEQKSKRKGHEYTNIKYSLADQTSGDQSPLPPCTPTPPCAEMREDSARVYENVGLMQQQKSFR

[5] = biological target: Dual specificity protein phosphatase 3 (Homo sapiens, UniProt P51452); test: VHR phosphatase inhibition, dose response, selectivity assay for STEP inhibitor project, biochemical (AID 602374); type: functional; conditions: read-out: IC50_Mean
Sequence of Dual specificity protein phosphatase 3 (P51452 whole entry): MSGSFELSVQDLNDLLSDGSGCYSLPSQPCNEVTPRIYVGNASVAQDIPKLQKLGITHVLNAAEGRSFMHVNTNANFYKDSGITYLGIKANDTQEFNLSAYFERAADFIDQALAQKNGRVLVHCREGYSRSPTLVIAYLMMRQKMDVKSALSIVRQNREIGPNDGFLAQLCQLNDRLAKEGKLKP

[6] = biological target: T4, Tyrosine-protein phosphatase non-receptor type 5 (Homo sapiens, UniProt P54829); test: PTPN5 enzyme inhibition – biochemical, fluorescence intensity, uHTS hits, confirmation (AID 602372); type: functional; conditions: read-out: IC50_Mean
T4 sequence (P54829 whole entry): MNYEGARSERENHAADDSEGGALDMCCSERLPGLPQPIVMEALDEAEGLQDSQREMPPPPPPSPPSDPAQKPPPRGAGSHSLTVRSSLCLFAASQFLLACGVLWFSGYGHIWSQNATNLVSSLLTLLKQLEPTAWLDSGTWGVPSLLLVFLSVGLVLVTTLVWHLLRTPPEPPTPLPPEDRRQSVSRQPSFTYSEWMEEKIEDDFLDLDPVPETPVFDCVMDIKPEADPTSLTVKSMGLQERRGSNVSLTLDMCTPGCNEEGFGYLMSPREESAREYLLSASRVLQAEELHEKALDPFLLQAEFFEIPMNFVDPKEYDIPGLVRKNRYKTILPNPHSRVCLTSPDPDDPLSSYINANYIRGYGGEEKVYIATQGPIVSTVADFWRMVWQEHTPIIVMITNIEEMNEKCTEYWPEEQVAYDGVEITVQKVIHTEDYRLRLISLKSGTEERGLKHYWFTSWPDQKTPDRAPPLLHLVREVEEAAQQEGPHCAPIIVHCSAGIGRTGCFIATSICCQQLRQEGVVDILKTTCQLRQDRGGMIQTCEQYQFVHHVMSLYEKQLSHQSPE

[7] = biological target: T5, Low molecular weight phosphotyrosine protein phosphatase (Homo sapiens, UniProt P24666); type: functional; conditions: read-out: IC50_Mean
T5 sequence (P24666 whole entry): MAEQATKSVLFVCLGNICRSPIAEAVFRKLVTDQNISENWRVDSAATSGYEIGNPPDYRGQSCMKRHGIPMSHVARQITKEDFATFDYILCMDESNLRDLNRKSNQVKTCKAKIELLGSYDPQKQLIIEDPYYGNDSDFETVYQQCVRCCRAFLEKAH

[8] = biological target: T5, Low molecular weight phosphotyrosine protein phosphatase; type: functional; conditions: read-out: IC50_Mean; remark: listed apart in the source
[9] = biological target: Delta-type opioid receptor (Homo sapiens, UniProt P41143); test: Counterscreen for agonists of heterodimerization of the mu 1 (OPRM1) and delta 1 (OPRD1) opioid receptors: Luminescence-based cell-based high throughput dose response assay to identify agonists of OPRD1 homodimerization. [Related pubchem assays (depositor defined):AID504326, AID504355, AID504692, AID504904, AID504905]; type: functional
Sequence of Delta-type opioid receptor (P41143 whole entry): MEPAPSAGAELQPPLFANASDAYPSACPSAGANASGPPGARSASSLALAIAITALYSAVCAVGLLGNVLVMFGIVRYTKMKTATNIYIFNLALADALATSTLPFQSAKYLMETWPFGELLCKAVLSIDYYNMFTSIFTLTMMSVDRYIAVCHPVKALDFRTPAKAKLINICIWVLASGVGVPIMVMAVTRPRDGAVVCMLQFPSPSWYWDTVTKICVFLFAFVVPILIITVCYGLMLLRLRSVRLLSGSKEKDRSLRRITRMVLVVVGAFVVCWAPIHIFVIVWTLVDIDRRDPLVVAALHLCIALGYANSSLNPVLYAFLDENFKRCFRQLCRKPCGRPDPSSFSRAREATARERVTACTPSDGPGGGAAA

[10] = non-specific 3'UTR reporter inhibition in Clone20-Shn3RL – cell-based, Renilla luciferase, cherry-picked, counter-screen for Shn3 inhibitor project, dose response (AID 624133); type: functional
Mu-type opioid receptor = Mu-type opioid receptor (Homo sapiens, UniProt P35372); test: Counterscreen for agonists of heterodimerization of the mu 1 (OPRM1) and delta 1 (OPRD1) opioid receptors: Luminescence-based cell-based high throughput dose response assay to identify agonists of OPRM1 homodimerization.; type: functional;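 also: U2OS cells expressing OPRM1 and beta-arrestin as split beta-galactosidase partners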
[11] = loss of viability in HepG2 cells – cell-based, CellTiter-Glo, cherry-picked, cytotoxicity control for Shn3 inhibitor project, dose response (AID 624134); type: functional
[12] = biological target: 5-hydroxytryptamine receptor 5A (Homo sapiens, UniProt P47898); test: Counterscreen for agonists of OPRM1-OPRD1 heterodimerization: luminescence-based cell-based high throughput dose response assay to identify agonists of 5-hydroxytryptamine (serotonin) 5A receptor (HTR5A). [Related pubchem assays (depositor defined):AID504326, AID504355, AID504692, AID504904, AID504905]; type: functional
[13] = biological target: Ras and Rab interactor 1/Tyrosine-protein kinase ABL1 (Homo sapiens, UniProt P00519+Q13671); type: functional;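 also: biochemical TR-FRET dose-response test measuring inhibition of binding between Rin1 and Abl proteins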
Sequence of Ras and Rab interactor 1/Tyrosine-protein kinase ABL1 (P00519 whole entry): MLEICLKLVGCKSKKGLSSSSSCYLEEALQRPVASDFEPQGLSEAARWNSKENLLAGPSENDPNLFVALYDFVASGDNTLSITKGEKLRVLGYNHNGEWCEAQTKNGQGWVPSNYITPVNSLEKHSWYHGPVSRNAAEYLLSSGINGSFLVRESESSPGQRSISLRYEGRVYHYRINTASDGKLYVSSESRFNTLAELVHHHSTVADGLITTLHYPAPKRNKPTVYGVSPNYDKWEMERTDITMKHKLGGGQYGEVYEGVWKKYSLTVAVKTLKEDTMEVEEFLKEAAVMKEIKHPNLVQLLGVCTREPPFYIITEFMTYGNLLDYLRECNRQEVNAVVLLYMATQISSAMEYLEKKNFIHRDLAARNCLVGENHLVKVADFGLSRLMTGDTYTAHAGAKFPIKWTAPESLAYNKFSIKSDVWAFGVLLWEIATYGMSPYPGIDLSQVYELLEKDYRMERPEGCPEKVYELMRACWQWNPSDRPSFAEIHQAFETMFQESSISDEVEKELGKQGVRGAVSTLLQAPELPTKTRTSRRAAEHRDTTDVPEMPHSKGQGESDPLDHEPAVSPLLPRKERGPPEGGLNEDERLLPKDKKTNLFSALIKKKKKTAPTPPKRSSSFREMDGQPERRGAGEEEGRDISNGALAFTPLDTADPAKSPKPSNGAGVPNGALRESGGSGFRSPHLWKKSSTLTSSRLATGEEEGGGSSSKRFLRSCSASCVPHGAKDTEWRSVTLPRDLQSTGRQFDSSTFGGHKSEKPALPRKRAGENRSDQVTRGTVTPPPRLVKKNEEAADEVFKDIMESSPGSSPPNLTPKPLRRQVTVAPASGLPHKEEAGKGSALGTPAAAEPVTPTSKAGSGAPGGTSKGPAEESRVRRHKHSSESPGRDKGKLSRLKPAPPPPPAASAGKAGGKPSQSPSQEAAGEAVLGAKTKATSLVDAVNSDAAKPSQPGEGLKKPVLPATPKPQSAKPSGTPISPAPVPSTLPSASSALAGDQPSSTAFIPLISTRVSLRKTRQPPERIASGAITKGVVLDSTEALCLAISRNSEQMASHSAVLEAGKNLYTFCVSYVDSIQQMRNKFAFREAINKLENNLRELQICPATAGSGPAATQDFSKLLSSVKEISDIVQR
Sequence of Ras and Rab interactor 1/Tyrosine-protein kinase ABL1 (Q13671 whole entry): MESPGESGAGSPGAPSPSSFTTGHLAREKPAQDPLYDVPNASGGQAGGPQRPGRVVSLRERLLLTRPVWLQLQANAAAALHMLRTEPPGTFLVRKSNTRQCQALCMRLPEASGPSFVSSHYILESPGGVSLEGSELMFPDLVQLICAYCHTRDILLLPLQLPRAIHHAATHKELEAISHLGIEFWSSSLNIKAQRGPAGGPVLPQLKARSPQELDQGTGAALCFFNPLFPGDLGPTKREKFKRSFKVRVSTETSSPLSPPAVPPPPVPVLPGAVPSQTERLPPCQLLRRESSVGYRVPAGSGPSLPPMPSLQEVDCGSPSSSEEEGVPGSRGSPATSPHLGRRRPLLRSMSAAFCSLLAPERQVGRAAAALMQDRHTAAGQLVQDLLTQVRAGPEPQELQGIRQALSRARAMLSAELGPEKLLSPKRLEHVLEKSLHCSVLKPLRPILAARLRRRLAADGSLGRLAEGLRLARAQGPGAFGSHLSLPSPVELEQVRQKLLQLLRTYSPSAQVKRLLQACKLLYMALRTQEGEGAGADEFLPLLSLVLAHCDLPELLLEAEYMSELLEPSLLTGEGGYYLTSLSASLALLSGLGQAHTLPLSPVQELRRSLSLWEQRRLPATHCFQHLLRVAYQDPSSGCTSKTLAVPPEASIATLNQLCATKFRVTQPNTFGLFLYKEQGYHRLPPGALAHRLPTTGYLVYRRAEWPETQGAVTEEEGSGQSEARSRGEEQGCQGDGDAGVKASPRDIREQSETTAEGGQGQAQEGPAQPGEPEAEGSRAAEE

Nonstructural protein 1 = Nonstructural protein 1 (Influenza A virus, UniProt Q194T2); type: functional, Influenza A virus (A/California/07/2009(H1N1))
Sequence of Nonstructural protein 1 (Q194T2 whole entry): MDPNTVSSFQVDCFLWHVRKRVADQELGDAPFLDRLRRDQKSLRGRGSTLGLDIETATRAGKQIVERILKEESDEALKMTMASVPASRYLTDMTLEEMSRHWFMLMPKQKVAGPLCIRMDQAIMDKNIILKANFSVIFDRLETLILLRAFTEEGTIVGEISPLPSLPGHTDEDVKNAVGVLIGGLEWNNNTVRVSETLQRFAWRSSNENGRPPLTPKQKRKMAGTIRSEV

[14] = reduction of Shn3 3'UTR-driven luciferase in osteoblasts – cell-based, Clone20 osteoblasts, firefly luciferase, cherry-picked, dose response (AID 624132); type: functional;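 also: firefly luciferase luminescence from reporter carrying the Shn3 3'UTR in osteoblasts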
Interleukin-8 [15] = biological target: T6, Interleukin-8 (Homo sapiens, UniProt P10145); test: Dose Response confirmation of uHTS small molecule hits for cystic fibrosis induced NFkb Inhibitors in a TNFa-induced IL8 counterscreen.; type: functional; conditions: read-out: IC50_Mean
T6 sequence (P10145 whole entry): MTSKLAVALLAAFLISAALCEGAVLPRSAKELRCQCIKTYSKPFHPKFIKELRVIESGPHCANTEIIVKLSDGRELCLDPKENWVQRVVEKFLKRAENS

Interleukin-8 [16] = biological target: T6, Interleukin-8; test: Dose Response confirmation of uHTS small molecule hits for cystic fibrosis induced NFkb Inhibitors in a PAF-induced IL8 counterscreen.; type: functional; conditions: read-out: IC50_Mean
Streptokinase A = biological target: T7, Streptokinase A (Streptococcus pyogenes serotype M1, UniProt P10520); test: viability-normalized secreted streptokinase activity reduction – plasminogen activation absorbance, OD405, dose response (AID 1914); type: functional, Streptococcus pyogenes M1 GAS;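 also: secreted streptokinase activity via plasminogen activation per viability signal from cell pellet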
T7 sequence (P10520 whole entry): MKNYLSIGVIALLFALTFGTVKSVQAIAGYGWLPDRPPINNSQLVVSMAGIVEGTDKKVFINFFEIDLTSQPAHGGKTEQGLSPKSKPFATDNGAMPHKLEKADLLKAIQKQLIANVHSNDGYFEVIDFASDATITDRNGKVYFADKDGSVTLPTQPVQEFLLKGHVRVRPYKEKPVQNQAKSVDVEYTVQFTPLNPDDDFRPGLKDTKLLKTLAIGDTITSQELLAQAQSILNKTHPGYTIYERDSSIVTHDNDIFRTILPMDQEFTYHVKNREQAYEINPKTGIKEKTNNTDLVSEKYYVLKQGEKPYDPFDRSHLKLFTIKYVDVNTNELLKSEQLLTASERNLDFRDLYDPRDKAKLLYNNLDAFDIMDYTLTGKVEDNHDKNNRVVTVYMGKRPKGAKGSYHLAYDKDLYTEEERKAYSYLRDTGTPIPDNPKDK

Genome polyprotein = Genome polyprotein (dengue virus type 2, UniProt P29990); test: flavivirus cap methylation enzyme inhibition – biochemical, confirmation dose response, primary screen (AID 588689); type: functional
Sequence of Genome polyprotein (P29990 2492-3391 limits assumed): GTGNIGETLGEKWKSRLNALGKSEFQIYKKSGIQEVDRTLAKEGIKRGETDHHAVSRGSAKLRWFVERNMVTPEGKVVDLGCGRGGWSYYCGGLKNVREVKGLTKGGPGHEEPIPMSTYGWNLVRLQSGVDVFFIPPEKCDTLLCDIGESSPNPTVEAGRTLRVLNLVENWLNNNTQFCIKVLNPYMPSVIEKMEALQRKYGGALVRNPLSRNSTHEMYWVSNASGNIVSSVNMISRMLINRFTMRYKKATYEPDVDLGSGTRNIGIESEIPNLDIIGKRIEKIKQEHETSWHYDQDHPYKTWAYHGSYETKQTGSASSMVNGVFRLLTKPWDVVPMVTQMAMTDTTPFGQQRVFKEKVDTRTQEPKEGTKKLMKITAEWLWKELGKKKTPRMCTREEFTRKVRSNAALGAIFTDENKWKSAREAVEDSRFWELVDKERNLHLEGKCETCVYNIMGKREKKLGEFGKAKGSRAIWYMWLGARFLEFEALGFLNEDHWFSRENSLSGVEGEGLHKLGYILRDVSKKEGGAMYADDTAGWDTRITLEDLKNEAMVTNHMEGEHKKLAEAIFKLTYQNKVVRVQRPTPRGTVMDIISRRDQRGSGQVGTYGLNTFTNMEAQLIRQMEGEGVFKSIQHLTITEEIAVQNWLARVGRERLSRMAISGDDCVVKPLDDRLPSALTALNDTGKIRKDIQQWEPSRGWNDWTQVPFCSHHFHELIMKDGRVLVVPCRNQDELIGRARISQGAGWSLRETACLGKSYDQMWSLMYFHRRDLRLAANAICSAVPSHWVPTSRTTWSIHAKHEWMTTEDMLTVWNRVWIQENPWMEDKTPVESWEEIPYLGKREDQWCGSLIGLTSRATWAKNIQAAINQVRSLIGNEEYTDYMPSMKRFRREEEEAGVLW

[17] = inhibition of ARNT PAS-B/TACC3 complex formation – biochemical, AlphaScreen, cherry-picked samples, confirmation (AID 651703); type: functional, Homo sapiens;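 also: His-tagged ARNT PAS-B domain paired with GST-TACC3 E629A dimer coactivator fragment; potency of inhibitors that break up the complex and lower AlphaScreen signal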
[18] = system: Streptococcus sp. 'group A'; test: Streptococcus pyogenes SK(-)GAS viability under kanamycin – luminescence, BacTiterGlo, confirmation, counter-screen for streptokinase expression inhibitor project, dose response (AID 1900); type: functional, organism-based
Vero = test: viability of Vero cells under compound – cytotoxicity control for flavivirus capping enzyme inhibitors (AID 588742); type: functional; conditions: Chlorocebus sabaeus
[19] = bead-based luminescence quenchers, dual-tagged ARNT – biochemical, AlphaScreen, cherry-pick, artefact control for ARNT-TACC3 interaction inhibitor project, dose response (AID 651705); type: functional;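 also: AlphaScreen bead proximity signal that flags compounds interfering with the detection technology; potency reflects signal decrease which marks the compound as an assay artifact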
Streptococcus = test: GAS UMAA2166 growth inhibition – luminescence, BacTiterGlo, counter-screen for streptokinase expression inhibitor project, dose response (AID 1915); type: functional, organism-based;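 also: potency for reduction of bacterial viability or growth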

O=C(c1ccccc1Cl)N1CCN(c2cc(-c3ccccc3)nc3cc(-c4cccc(Cl)c4)nn23)CC1
EC50 [1]: 1.07 µM (active)
EC50 [2]: 1.15 µM (active)

Cc1cc(C)c(O)c(N2CC(C(=O)O)CC2=O)c1 (stereo not given)
EC50 [3]: > 100 µM (inactive)

O=C(N/N=C/c1cccc([N+](=O)[O-])c1)c1ccc(Br)cc1
IC50 [4]: 6.62 µM (active)
IC50 [5]: 5.03 µM (active)
IC50 [6]: 8.16 µM (active)
IC50 [7]: 22.8 µM (inactive)
IC50 [8]: 15.1 µM (active)

Cc1nc2nc(C)n(CCN3CCOCC3)c(=O)c2c(-c2cccc([N+](=O)[O-])c2)c1C(=O)CCCCCCCCCCN1CCC(c2ccccc2)(c2ccccc2)CC1
EC50 [9]: > 92.4 µM (inactive)
AC50 [10]: 11.3 µM (active)
EC50 (Mu-type opioid receptor): > 92.4 µM (inactive)
AC50 [11]: 14.7 µM (active)
EC50 [12]: > 92.4 µM (inactive)
IC50 [13]: 1.35 µM (active)
IC50 (Nonstructural protein 1): 21.9 µM (active)
AC50 [14]: 7.38 µM (active)

Fc1cccc(Cl)c1/C=N/Nc1c(Cl)cncc1Cl
IC50 (Interleukin-8 [15]): > 79 µM (inactive)
IC50 (Interleukin-8 [16]): 14.8 µM (inactive)

COc1cccc(-c2coc3c(C)c4oc(=O)c(CCC(=O)O)c(C)c4cc23)c1
EC50 (Streptokinase A): > 150 µM (not active)
IC50 (Genome polyprotein): 40.5 µM (active)
AC50 [17]: 130 µM (active)
EC50 [18]: 2.4 µM (active)
CC50 (Vero): > 40 µM (active)
AC50 [19]: 98 µM (active)
EC50 (Streptococcus): 13.4 µM (active)
